This note sets out measurements from US5721208A, “Glycopeptides a process for their preparation and their use” (Hoechst Aktiengesellschaft, priority 1991, dated 1998).

The test system of assay [1] is Staph. aureus SG 511. Nature of the assay: Minimum bacteriostatic inhibitory concentration, Agar dilution method. The format is cell-based. Background: In agar dilution the substance is mixed into plates at graded concentrations.
For assay [2], the system named is Staph. aureus 285. The assay is described as above. The format is cell-based.
The subject of assay [3] is Staph. aureus 503. The description is as above. The format is cell-based.
Assay [4] deals with Strept. pyogenes 308 A. The assay is described as above. The format is cell-based.
The subject of assay [5] is Strept. pyogenes 77 A. The assay is described as above. The format is cell-based.
Assay [6] concerns Strept. faecium D. Described as above. The class given is cell-based.
For assay [7], the system named is Escherichia coli DC 2. The description is as above. The format is cell-based.
Assay [8] deals with Bact. fragilis 312. Described as above. The class given is cell-based.
The subject of assay [9] is Bact. fragilis 960. The description is as above. The format is cell-based.
Assay [10] deals with Bact. fragilis 1313. The description is as above. The class given is cell-based.
For assay [11], the system named is Bact. vulgatus 1446. The assay is described as above. The format is cell-based.
Assay [12] deals with Peptostrept. anaerob. 932. Described as above. The format is cell-based.
For assay [13], the system named is Propioni acnes 6916. Described as above. The format is cell-based.
Assay [14] deals with Propioni acnes 6922. Described as above. The class given is cell-based.
Assay [15] relates to Clostridium tetani ATCC 1940650. To be noted: Agar dilution method.
Assay [16] deals with Clostridium perfringens 194. To be noted: Agar dilution method.

As for `CC(C)C[C@H](C(=O)N[C@H]1C(=O)NC(CC(N)=O)C(=O)N[C@H]2C(=O)N[C@H]3C(=O)N[C@H](C(=O)N[C@@H](C(=O)O)c4cc(O)cc(O)c4-c4cc3ccc4O)[C@H](O[C@H]3C[C@](C)(N)C(=O)[C@H](C)O3)c3ccc(c(Cl)c3)Oc3cc2cc(c3O[C@@H]2O[C@H](CO)[C@@H](O)[C@H](O)[C@H]2O)Oc2ccc(cc2Cl)[C@H]1O)N(C)C` (some centres unmarked) [Methylbalhimycin, methylbalhimycin], the “Minimum bacteriostatic inhibitory concentration” value in assay [1] was determined as 0.4 micrograms per milliliter; in assay [2], 0.4 micrograms per milliliter; in [3] it was 0.4 micrograms per milliliter; in [4], 0.4 micrograms per milliliter; in assay [5], 0.4 micrograms per milliliter; in assay [6] it was 0.8 micrograms per milliliter. Also, the “Minimum bacteriostatic inhibitory concentration” value is on record as 25 micrograms per milliliter in [7]; 100 micrograms per milliliter in [8]; 100 micrograms per milliliter in assay [9]; 50 micrograms per milliliter in [10]; over 100 micrograms per milliliter in [11]; 0.8 micrograms per milliliter in assay [12]. For the same compound, the “Minimum bacteriostatic inhibitory concentration” value was 0.4 micrograms per milliliter in assay [13], 0.4 micrograms per milliliter in [14], 3.1 micrograms per milliliter in assay [15] and 1.5 micrograms per milliliter in [16].

With `CC(C)CC(N)C(=O)NC1C(=O)NC(CC(N)=O)C(=O)NC2C(=O)NC3C(=O)NC(C(=O)NC(C(=O)O)c4cc(O)cc(O)c4-c4cc3ccc4O)C(OC3CC(C)(N)C(=O)C(C)O3)c3ccc(c(Cl)c3)Oc3cc2cc(c3OC2OC(CO)C(O)C(O)C2O)Oc2ccc(cc2Cl)C1O` (centres unmarked) [Desmethylbalhimycin, desmethylbalhimycin], the “Minimum bacteriostatic inhibitory concentration” value in assay [1] is on record as 0.1 micrograms per milliliter; in assay [2] it was 0.1 micrograms per milliliter; in assay [3] it was 0.05 micrograms per milliliter; in [4], 0.05 micrograms per milliliter; in [5], 0.05 micrograms per milliliter; in assay [6], 0.2 micrograms per milliliter. Further, the “Minimum bacteriostatic inhibitory concentration” value in assay [7] is listed as 10 micrograms per milliliter; in assay [8], 100 micrograms per milliliter; in [9] it was 25 micrograms per milliliter; in assay [10], 50 micrograms per milliliter; in [11] it was 50 micrograms per milliliter; in [12], 25 micrograms per milliliter. In addition, the “Minimum bacteriostatic inhibitory concentration” value is 0.8 micrograms per milliliter in assay [13], 0.4 micrograms per milliliter in [14], 50 micrograms per milliliter in assay [15] and 0.2 micrograms per milliliter in assay [16].

As for `CC1OC(OC2c3ccc(c(Cl)c3)Oc3cc4cc(c3OC3OC(CO)C(O)C(O)C3O)Oc3ccc(cc3Cl)C(O)C(N)C(=O)NC(CC(N)=O)C(=O)NC4C(=O)NC3C(=O)NC2C(=O)NC(C(=O)O)c2cc(O)cc(O)c2-c2cc3ccc2O)CC(C)(N)C1=O` (centres unmarked) [Desmethylleucylbalhimycin, desmethylleucylbalhimycin], the “Minimum bacteriostatic inhibitory concentration” value in [1] came out at 3 micrograms per milliliter; in assay [2], 6 micrograms per milliliter; in assay [3], 6 micrograms per milliliter; in [4] it was 12.5 micrograms per milliliter; in assay [5], 3 micrograms per milliliter; in assay [6] it was 6 micrograms per milliliter. Moreover, the “Minimum bacteriostatic inhibitory concentration” value in assay [7] is on record as over 100 micrograms per milliliter; in assay [8] it was 50 micrograms per milliliter; in assay [9] it was 50 micrograms per milliliter; in assay [10] it was 100 micrograms per milliliter; in [11] it was 100 micrograms per milliliter; in assay [12], 50 micrograms per milliliter. In addition, the “Minimum bacteriostatic inhibitory concentration” value amounted to 6 micrograms per milliliter in assay [13], 6 micrograms per milliliter in assay [14], 50 micrograms per milliliter in [15] and 6 micrograms per milliliter in assay [16].

As for `CNC(CC(C)C)C(=O)NC1C(=O)NC(CC(N)=O)C(=O)NC2C(=O)NC3C(=O)NC(C(=O)NC(C(=O)O)c4cc(O)cc(O)c4-c4cc3ccc4O)C(OC3CC(C)(N)C(=O)C(C)O3)c3ccc(c(Cl)c3)Oc3cc2cc(c3O)Oc2ccc(cc2Cl)C1O` (centres unmarked) [Desglucobalhimycin, desglucobalhimycin], the “Minimum bacteriostatic inhibitory concentration” value came out at 0.2 micrograms per milliliter in [1]; 0.2 micrograms per milliliter in assay [2]; 0.1 micrograms per milliliter in assay [3]; 0.1 micrograms per milliliter in assay [4]; 0.1 micrograms per milliliter in [5]; 0.2 micrograms per milliliter in assay [6]. The “Minimum bacteriostatic inhibitory concentration” value in [7] was over 100 micrograms per milliliter; in [8], 25 micrograms per milliliter; in [9], 25 micrograms per milliliter; in [10], 25 micrograms per milliliter; in assay [11], over 100 micrograms per milliliter; in assay [12] it was 0.4 micrograms per milliliter. The “Minimum bacteriostatic inhibitory concentration” value was found to be 0.2 micrograms per milliliter in assay [13], 0.2 micrograms per milliliter in assay [14], 0.4 micrograms per milliliter in assay [15] and 0.1 micrograms per milliliter in assay [16].

Consider `CNC(CC(C)C)C(=O)NC1C(=O)NC(CC(N)=O)C(=O)NC2C(=O)NC3C(=O)NC(C(=O)NC(C(=O)O)c4cc(O)cc(O)c4-c4cc3ccc4O)C(OC3CC4(C)NC(=O)NC4(O)C(C)O3)c3ccc(c(Cl)c3)Oc3cc2cc(c3OC2OC(CO)C(O)C(O)C2O)Oc2ccc(cc2Cl)C1O` (centres unmarked) [Ureidobalhimycin, ureidobalhimycin], for which the “Minimum bacteriostatic inhibitory concentration” value amounted to 0.8 micrograms per milliliter in assay [1]; 1.5 micrograms per milliliter in assay [2]; 1.5 micrograms per milliliter in [3]; 0.8 micrograms per milliliter in assay [4]; 0.8 micrograms per milliliter in [5]; 1.5 micrograms per milliliter in assay [6]. The “Minimum bacteriostatic inhibitory concentration” value is recorded as over 100 micrograms per milliliter in [7]; 25 micrograms per milliliter in [8]; 25 micrograms per milliliter in [9]; 25 micrograms per milliliter in [10]; 50 micrograms per milliliter in assay [11]; 6.2 micrograms per milliliter in assay [12]. The “Minimum bacteriostatic inhibitory concentration” value in assay [13] is 0.8 micrograms per milliliter; in [14], 1.5 micrograms per milliliter; in assay [15] it was 12.5 micrograms per milliliter; in [16], 0.4 micrograms per milliliter.
